This data set in a line: Leaching: 10 grams fabric in 100 milliliters distilled water, 7 days, GC-MS. The data set is classed as physicochemical. The method, then:
To test for a potential leaching of the antimicrobial agents fixed to the textile material, the following test was performed. A test fabric of polyester 65%/cotton 35% with 210 g/m2 was treated with polyhexamethylenebiguanide (PHMB) 0.5%, silver chloride 0.075%, octadecylaminomethyl trihydroxysilylpropyl ammonium chloride (organosilane) 0.4%, and propiconazole 0.5%
The treated textile material was put into distilled water at a ratio of 1:10. Specifically, a fabric of 10 grams was soaked in 100 milliliters of distilled water. The fabric was incubated in the water for 7 days at room temperature, i.e. between 21 and 25° C.
Following said incubation time, the fabric was removed from the water and the exposed water was tested for the presence of the above five active ingredients using gas chromatography-mass spectrometry (GC-MS).

Take `[Cl][Ag]` [Silver chloride]: the “Extracted water Conc, ppm” value is on record as “BDL (BDL-below detection limit Detection limit: 1 parts per million (ppm))”.
